Assay results reported in US20240246964A1 (Arbutus Biopharma Corporation, priority 2021, published 2024).

Tests used:
[1] = biological target: PD-L1 His protein / PD-1 Fc protein (Homo sapiens (Human), UniProt Q9NZQ7); test: HTRF Assay (PD-1/PD-L1 interaction); format: binding; details: PD-L1 His 6 nM, PD-1 Fc 6 nM
human PD-L1 = human PD-L1 (Homo sapiens (Human), UniProt Q9NZQ7); test: T cell activation luciferase reporter cell culture system (T Cell Activation Assay); format: cell-based; details: luciferase reporter assay; PD-L1 aAPC/CHO-K1 cells with PD-1 effector Jurkat T cells
Chain of human PD-L1 (Q9NZQ7 19-290): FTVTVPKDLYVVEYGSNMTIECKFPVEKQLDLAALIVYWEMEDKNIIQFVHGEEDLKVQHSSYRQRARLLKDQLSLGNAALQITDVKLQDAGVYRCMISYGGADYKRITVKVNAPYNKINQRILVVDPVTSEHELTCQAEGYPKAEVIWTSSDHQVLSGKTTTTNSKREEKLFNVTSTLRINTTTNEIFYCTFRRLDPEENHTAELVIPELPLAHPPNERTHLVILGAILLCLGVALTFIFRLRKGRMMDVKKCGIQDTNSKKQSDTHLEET

Chain of PD-L1 His protein / PD-1 Fc protein (Q9NZQ7 19-238): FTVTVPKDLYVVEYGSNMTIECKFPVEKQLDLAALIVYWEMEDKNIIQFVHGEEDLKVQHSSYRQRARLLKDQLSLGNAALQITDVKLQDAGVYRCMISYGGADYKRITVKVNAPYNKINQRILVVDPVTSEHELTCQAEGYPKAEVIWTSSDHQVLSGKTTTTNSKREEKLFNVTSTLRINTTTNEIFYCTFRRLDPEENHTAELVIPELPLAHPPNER

SMILES | IC50 [1] | EC50 (human PD-L1)
COc1cc(-c2nccc(-c3cccc(NC(=O)c4ccc(CNC5CC6(C5)CN(C(C)=O)C6)cn4)c3Cl)c2Cl)ccc1CNC1CC2(C1)CN(C(C)=O)C2 (stereo not drawn) [Example 706, 5-(((2-Acetyl-2-azaspiro[3.3]heptan-6-yl)amino)methyl)-N-(3-(2-(4-(((2-acetyl-2-azaspiro[3.3]heptan-6-yl)amino)methyl)-3-methoxyphenyl)-3-chloropyridin-4-yl)-2-chlorophenyl)picolinamide] | 0.2 nM | 72.6 nM
COc1nc(-c2ccnc(-c3cccc4c3CCC[C@@H]4Nc3nc(OC)c(CNC[C@H](C)O)cc3C(F)(F)F)c2Cl)ccc1CNC[C@@H]1CCC(=O)N1 [Example 707, (S)-5-((((3′-Chloro-2′-((S)-5-((5-((((S)-2-hydroxypropyl)amino)methyl)-6-methoxy-3-(trifluoromethyl)pyridin-2-yl)amino)-5,6,7,8-tetrahydronaphthalen-1-yl)-6-methoxy-[2,4′-bipyridin]-5-yl)methyl)amino)methyl)pyrrolidin-2-one] | 54.3 nM | ≥ 10000 nM
COc1nc(-c2cccc(-c3ccnc(-c4cc(OC)c5nc(CNCC(C)(C)O)nn5c4)c3Cl)c2Cl)ccc1CNC1CCN(C(C)=O)CC1 [Example 714, 1-(4-(((6-(2-chloro-3-(3-chloro-2-(2-(((2-hydroxy-2-methylpropyl)amino)methyl)-8-methoxy-[1,2,4]triazolo[1,5-a]pyridin-6-yl)pyridin-4-yl)phenyl)-2-methoxypyridin-3-yl)methyl)amino)piperidin-1-yl)ethan-1-one] | 0.54 nM | 249 nM
COc1cc(-c2ncnc(-c3cccc(-c4ccc(CNC[C@@H]5CCC(=O)N5)c(OC)n4)c3Cl)c2OC)ccc1CNC[C@@H]1CCC(=O)N1 [Example 716, (S)-5-((((6-(2-chloro-3-(5-methoxy-6-(3-methoxy-4-(((((S)-5-oxopyrrolidin-2-yl)methyl)amino)methyl)phenyl)pyrimidin-4-yl)phenyl)-2-methoxypyridin-3-yl)methyl)amino)methyl)pyrrolidin-2-one] | 0.6 nM | 940 nM
COc1nc(-c2ccnc(-c3cccc4c3CCC[C@@H]4Nc3nc(OC)c(CN4CC5(CNC(=O)C5)C4)cc3C(F)(F)F)c2Cl)ccc1CNC[C@@H]1CCC(=O)N1 [Example 720, 2-((6-(((S)-5-(3′-Chloro-6-methoxy-5-(((((S)-5-oxopyrrolidin-2-yl)methyl)amino)methyl)-[2,4′-bipyridin]-2′-yl)-1,2,3,4-tetrahydronaphthalen-1-yl)amino)-2-methoxy-5-(trifluoromethyl)pyridin-3-yl)methyl)-2,6-diazaspiro[3.4]octan-7-one] | 34.4 nM | ≥ 10000 nM
COc1cc(-c2nccc(-c3cccc4c3CCC[C@@H]4Nc3nc(OC)c(CN4CC5(CNC(=O)C5)C4)cc3C(F)(F)F)c2Cl)ccc1CNC[C@@H]1CCC(=O)N1 [Example 724, 2-((6-(((S)-5-(3-Chloro-2-(3-methoxy-4-(((((S)-5-oxopyrrolidin-2-yl)methyl)amino)methyl)phenyl)pyridin-4-yl)-1,2,3,4-tetrahydronaphthalen-1-yl)amino)-2-methoxy-5-(trifluoromethyl)pyridin-3-yl)methyl)-2,6-diazaspiro[3.4]octan-7-one] | 585 nM | ≥ 10000 nM
Cc1c(NC(=O)c2ccc(CNC[C@@H]3CCC(=O)N3)cn2)cccc1-c1ccnc(-c2ccc(CNC[C@@H]3CCC(=O)N3)c(OC(F)F)c2)c1Cl [Example 725, N-(3-(3-Chloro-2-(3-(difluoromethoxy)-4-(((((S)-5-oxopyrrolidin-2-yl)methyl)amino)methyl)phenyl)pyridin-4-yl)-2-methylphenyl)-5-(((((S)-5-oxopyrrolidin-2-yl)methyl)amino)methyl)picolinamide] | 0.53 nM | 120 nM
COc1cc(-c2nccc(-c3cccc(NC(=O)c4ccc(CNC[C@@H]5CCC(=O)N5)cn4)c3C)c2Cl)cc(F)c1CNC[C@@H]1CCC(=O)N1 [Example 726, N-(3-(3-Chloro-2-(3-fluoro-5-methoxy-4-(((((S)-5-oxopyrrolidin-2-yl)methyl)amino)methyl)phenyl)pyridin-4-yl)-2-methylphenyl)-5-(((((S)-5-oxopyrrolidin-2-yl)methyl)amino)methyl)picolinamide] | 0.42 nM | 48.7 nM
COc1cc(-c2nccc(-c3cccc(NC(=O)c4ccc(CNCCO)cn4)c3C)c2Cl)ccc1CNC[C@@H]1CCC(=O)N1 [Example 735, (S)—N-(3-(3-Chloro-2-(3-methoxy-4-((((5-oxopyrrolidin-2-yl)methyl)amino)methyl)phenyl)pyridin-4-yl)-2-methylphenyl)-5-(((2-hydroxyethyl)amino)methyl)picolinamide] | 0.03 nM | 15.6 nM
COc1cc(-c2nccc(-c3cccc(NC(=O)c4ccc(CNC[C@@H]5CCC(=O)N5)cn4)c3C)c2Cl)ccc1CNCCCF [Example 749, (S)—N-(3-(3-Chloro-2-(4-(((3-fluoropropyl)amino)methyl)-3-methoxyphenyl)pyridin-4-yl)-2-methylphenyl)-5-((((5-oxopyrrolidin-2-yl)methyl)amino)methyl)picolinamide] | 0.33 nM | 461 nM
COc1cc(-c2nccc(-c3cccc(NC(=O)c4ccc(CNCCO)cn4)c3Cl)c2Cl)ccc1CNC[C@@H]1CCC(=O)N1 [Example 755, (S)—N-(2-Chloro-3-(3-chloro-2-(3-methoxy-4-((((5-oxopyrrolidin-2-yl)methyl)amino)methyl)phenyl)pyridin-4-yl)phenyl)-5-(((2-hydroxyethyl)amino)methyl)picolinamide] | 0.12 nM | 4.48 nM
CNCc1ccc(C(=O)Nc2cccc(-c3ccnc(-c4ccc(CNC[C@@H]5CCC(=O)N5)c(OC)c4)c3Cl)c2C)nc1 [Example 756, (S)—N-(3-(3-chloro-2-(3-methoxy-4-((((5-oxopyrrolidin-2-yl)methyl)amino)methyl)phenyl)pyridin-4-yl)-2-methylphenyl)-5-((methylamino)methyl)picolinamide] | 0.2 nM | 63.8 nM
COc1cc(-c2nccc(-c3cccc(NC(=O)c4ccc(CNCCO)cn4)c3Cl)c2Cl)ccc1CN1CC2(C1)CN(C(C)=O)C2 [Example 757, N-(3-(2-(4-((6-Acetyl-2,6-diazaspiro[3.3]heptan-2-yl)methyl)-3-methoxyphenyl)-3-chloropyridin-4-yl)-2-chlorophenyl)-5-(((2-hydroxyethyl)amino)methyl)picolinamide] | 0.47 nM | 86.5 nM
COc1nc(-c2cccc(-c3nccc(-c4ccc(CN5CCC(O)CC5)c(OC)n4)c3Cl)c2Cl)ccc1CN1CCC(O)CC1 [Example 759, 1-((3′-Chloro-2′-(2-chloro-3-(5-((4-hydroxypiperidin-1-yl)methyl)-6-methoxypyridin-2-yl)phenyl)-6-methoxy-[2,4′-bipyridin]-5-yl)methyl)piperidin-4-ol] | 0.63 nM | 16.9 nM
COc1nc(-c2cccc(-c3nccc(-c4ccc(CN5CC6(CCN(C(C)=O)C6)C5)c(OC)n4)c3Cl)c2Cl)ccc1CN1CC2(CCN(C(C)=O)C2)C1 [Example 760, 1-(2-((6-(3-(5-((6-Acetyl-2,6-diazaspiro[3.4]octan-2-yl)methyl)-3′-chloro-6-methoxy-[2,4′-bipyridin]-2′-yl)-2-chlorophenyl)-2-methoxypyridin-3-yl)methyl)-2,6-diazaspiro[3.4]octan-6-yl)ethan-1-one] | 0.32 nM | 19.2 nM
COc1nc(-c2cccc(-c3nccc(-c4ccc(CN5CCC(O)CC5)c(OC)n4)c3Cl)c2Cl)ccc1CNC1CCN(C(C)=O)CC1 [Example 761, 1-(4-(((6-(2-Chloro-3-(3′-chloro-5-((4-hydroxypiperidin-1-yl)methyl)-6-methoxy-[2,4′-bipyridin]-2′-yl)phenyl)-2-methoxypyridin-3-yl)methyl)amino)piperidin-1-yl)ethan-1-one] | 0.87 nM | 16.9 nM
COc1cc(-c2nccc(-c3cccc(NC(=O)c4ccc(CNCCO)cn4)c3C)c2Cl)cc(F)c1CNCCO [Example 762, N-(3-(3-chloro-2-(3-fluoro-4-(((2-hydroxyethyl)amino)methyl)-5-methoxyphenyl)pyridin-4-yl)-2-methylphenyl)-5-(((2-hydroxyethyl)amino)methyl)picolinamide] | 0.75 nM | 49.9 nM
COc1nc(-c2ccnc(-c3cccc(NC(=O)c4ccc(CNCCO)cn4)c3C)c2Cl)ccc1CNC1CCOCC1 [Example 766, N-(3-(3′-Chloro-6-methoxy-5-(((tetrahydro-2H-pyran-4-yl)amino)methyl)-[2,4′-bipyridin]-2′-yl)-2-methylphenyl)-5-(((2-hydroxyethyl)amino)methyl)picolinamide] | 0.32 nM | 152 nM
COc1cc(-c2nccc(-c3cccc(NC(=O)c4ccc(CNCCO)cn4)c3Cl)c2Cl)ccc1CNC1CCOCC1 [Example 768, N-(2-Chloro-3-(3-chloro-2-(3-methoxy-4-(((tetrahydro-2H-pyran-4-yl)amino)methyl)phenyl)pyridin-4-yl)phenyl)-5-(((2-hydroxyethyl)amino)methyl)picolinamide] | 0.1 nM | 16.7 nM
COc1nc(-c2ccnc(-c3cccc(NC(=O)c4ccc(CNCCO)cn4)c3C)c2Cl)ccc1CNC1CCN(C(C)=O)CC1 [Example 769, N-(3-(5-(((1-Acetylpiperidin-4-yl)amino)methyl)-3′-chloro-6-methoxy-[2,4′-bipyridin]-2′-yl)-2-methylphenyl)-5-(((2-hydroxyethyl)amino)methyl)picolinamide] | 0.24 nM | 60.6 nM
Cc1c(NC(=O)c2ccc(CNCCO)cn2)cccc1-c1ccnc(-c2ccc(CNC[C@@H]3CCC(=O)N3)c(OC(F)F)c2)c1Cl [Example 770, (S)—N-(3-(3-Chloro-2-(3-(difluoromethoxy)-4-((((5-oxopyrrolidin-2-yl)methyl)amino)methyl)phenyl)pyridin-4-yl)-2-methylphenyl)-5-(((2-hydroxyethyl)amino)methyl)picolinamide] | 0.76 nM | 24.3 nM
